Where two headings read alike, the source gives them in different places.
Experiments:
[1] = molecular target: T1, calf intestinal alkaline phosphatase (Bos taurus, UniProt P19111); assay: In vitro dephosphorylation by alkaline phosphatase (inorganic phosphate release); type: in vitro ADME; conditions: up to 100 nmol CLR01, 60 min at 60°C, detection limit 5 nmol
T1 construct: purchased Promega, Madison, Wisconsin
Protocol: (§1) Potential dephosphorylation of CLR01 was analyzed by incubating 100 nmol CLR01 with 0.08 units of alkaline phosphatase (ALP; calf intestinal alkaline phosphatase, Promega, Madison, Wisconsin) for 60 min at 60°C. One enzymatic unit is defined as the amount of enzyme required for catalyzing the hydrolysis of 1 μmol of p-nitrophenylphosphate per minute. p-Nitrophenylphosphate disodium salt at 5–50 nmol (Fisher, Waltham, Massachusetts) was used for generation of a standard curve. The amount of inorganic phosphate generated was measured spectrophotometrically using an EnzChek Phosphate Assay kit (Life Technologies, Carlsbad, California) according to the manufacturer’s instructions on a DU-640 spectrophotometer (Beckman Coulter, Brea, California) at λ = 360 nm. Baseline values were subtracted from readings and compared to the standard curve resulting from serial ALP reactions to calculate the amount of inorganic phosphate. Similarly, potential dephosphorylation of CLR01 by brain homogenates was measured. For these experiments, one brain hemisphere was homogenized by sonication in the presence of cOmplete protease-inhibitor cocktail (Roche, Penzberg, Germany). Protein concentration was measured using a BCA Protein Assay Kit (Pierce, Rockford, Illinois). […]

[2] = set-up: method as in PMID 18605724, PMID 23750919; conditions: cited from earlier work
[3] = set-up: method as in PMID 23183235; conditions: mouse liver microsomes; cited from earlier work
[4] = set-up: method as in PMID 23183235; conditions: mouse plasma; cited from earlier work
cytochrome P450 system = test system: cytochrome P450 system; set-up: method as in PMID 23183235; conditions: up to 10-μM, compared to rifampicin positive control; cited from earlier work
[5] = Blood-brain barrier permeability with 3H-CLR01 IV (scintillation counting of blood and brain); type: in vivo, mouse; conditions: 40-μg/kg/day dose, 15-m old 3×Tg mice, estimate
[6] = molecular target: alcohol dehydrogenase (ADH); set-up: method as in PMID 18605724; conditions: ADH concentration of 208 nM; cited from earlier work
[7] = In vitro dephosphorylation by brain homogenate (inorganic phosphate release); type: in vitro ADME, mouse; conditions: 50 nmol CLR01, 1.5 mg mouse-brain homogenate, 60 min at 60°C
Protocol: as §1

[8] = test system: nerve growth factor-differentiated rat pheochromocytoma cells; set-up: method as in PMID 21916458, PMID 22860214; conditions: cited from earlier work
[9] = molecular target: Poly [ADP-ribose] polymerase 1 (PARP-1); set-up: method as in T. Schrader, unpublished results; conditions: enzyme concentration of 2.3 nM; ref T. Schrader, unpublished results; cited from earlier work
primary neurons = test system: primary neurons; set-up: method as in PMID 23183235; conditions: cited from earlier work
porcine brain tubulin = molecular target: T2, porcine brain tubulin (Sus scrofa, UniProt P02550+P02554); assay: Inhibition of tubulin polymerization (turbidity, absorbance at 340 nm); type: biochemical
T2 construct: porcine brain tubulin; purchased Cytoskeleton, Inc., Denver, Colorado; host or cells: porcine brain (tissue-purified)
T2 sequence (P02550 whole entry): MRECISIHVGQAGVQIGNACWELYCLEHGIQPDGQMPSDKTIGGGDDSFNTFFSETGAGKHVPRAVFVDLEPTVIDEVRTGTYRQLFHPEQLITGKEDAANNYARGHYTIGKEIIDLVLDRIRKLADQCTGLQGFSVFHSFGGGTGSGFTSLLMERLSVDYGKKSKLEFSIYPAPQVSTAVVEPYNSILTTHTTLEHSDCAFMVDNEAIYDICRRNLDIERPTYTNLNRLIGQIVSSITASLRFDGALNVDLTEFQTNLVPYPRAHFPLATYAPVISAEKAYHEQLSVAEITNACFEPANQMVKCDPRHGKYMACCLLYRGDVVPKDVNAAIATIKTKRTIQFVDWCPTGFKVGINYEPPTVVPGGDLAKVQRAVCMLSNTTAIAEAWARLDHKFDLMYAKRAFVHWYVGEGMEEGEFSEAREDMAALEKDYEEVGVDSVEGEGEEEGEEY
T2 sequence (P02554 whole entry): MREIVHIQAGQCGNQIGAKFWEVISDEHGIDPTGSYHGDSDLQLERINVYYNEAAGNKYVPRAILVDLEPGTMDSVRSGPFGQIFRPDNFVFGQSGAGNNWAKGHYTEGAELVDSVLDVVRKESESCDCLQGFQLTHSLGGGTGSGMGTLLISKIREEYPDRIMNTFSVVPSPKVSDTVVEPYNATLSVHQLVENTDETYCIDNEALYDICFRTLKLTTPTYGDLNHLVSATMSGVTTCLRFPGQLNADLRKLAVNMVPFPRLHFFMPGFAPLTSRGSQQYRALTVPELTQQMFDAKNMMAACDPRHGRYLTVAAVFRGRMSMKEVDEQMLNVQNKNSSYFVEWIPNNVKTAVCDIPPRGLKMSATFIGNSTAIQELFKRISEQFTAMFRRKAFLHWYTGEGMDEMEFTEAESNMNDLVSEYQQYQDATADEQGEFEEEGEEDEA
Protocol: The effect of CLR01 on tubulin polymerization was analyzed using a commercial kit (Cytoskeleton, Inc., Denver, Colorado). Three mg/ml porcine brain tubulin (~18 μM) were allowed to polymerize at 37 °C in the absence or presence of CLR01 concentrations ranging from 10–1,000 μM. The turbidity of the solution was measured as absorbance at λ = 340 nm using a Synergy HT microplate reader (BioTek, Winooski, VT). The data are an average of three independent experiments with two wells per condition.
As stated above, the mechanism by which CLR01 remodels the assembly of amyloidogenic proteins into non-toxic assemblies that can be degraded by normal clearance mechanisms is by its specific binding to Lys residues. The mechanism is “process-specific” because it is postulated to affect only the aberrant assembly of proteins that leads to toxic oligomers and aggregates, but not normal protein structure, function, or assembly as happens, e.g., in tubulin polymerization. To test whether this indeed is the case, we examined the effect of CLR01 on tubulin polymerization. Three mg/ml (~18 μM) porcine brain tubulin, which contains 3.8% Lys and 4.8% Arg, was allowed to polymerize in the absence or presence of CLR01 concentrations ranging from 10–1,000 μM.

T1 sequence (P19111 20-533): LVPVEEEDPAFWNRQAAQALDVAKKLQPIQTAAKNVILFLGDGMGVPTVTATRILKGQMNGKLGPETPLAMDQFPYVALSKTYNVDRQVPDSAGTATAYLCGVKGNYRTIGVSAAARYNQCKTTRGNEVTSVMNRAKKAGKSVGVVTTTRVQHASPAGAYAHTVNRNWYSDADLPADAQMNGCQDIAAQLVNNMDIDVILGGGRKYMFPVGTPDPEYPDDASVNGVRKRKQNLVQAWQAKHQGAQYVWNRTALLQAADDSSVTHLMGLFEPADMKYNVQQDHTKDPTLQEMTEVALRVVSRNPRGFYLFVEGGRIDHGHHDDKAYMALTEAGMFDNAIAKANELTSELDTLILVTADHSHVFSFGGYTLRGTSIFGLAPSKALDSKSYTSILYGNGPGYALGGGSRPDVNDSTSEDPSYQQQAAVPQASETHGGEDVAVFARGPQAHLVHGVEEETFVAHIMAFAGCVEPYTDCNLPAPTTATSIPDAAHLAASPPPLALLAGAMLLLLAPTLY

In the case of `O=P(O)(O)Oc1c2c(c(OP(=O)(O)O)c3c1C1CC3c3cc4c(cc31)C1CC4c3ccccc31)C1CC2c2cc3c(cc21)C1CC3c2ccccc21` [CLR01], the “Inorganic phosphate released on incubation with ALP” value [1] is given as “undetectable levels of inorganic phosphate”, the “Affinity for Arg relative to Lys, fold lower” value [2] is given as ~ 10 fold and the Stability [3] is given as 100%. For the same compound, the Stability [4] was 100%, the “Activation of the cytochrome P450 system” value (cytochrome P450 system) was “Minimal activation” and the “Estimated amount of CLR01 entering the brain per day” value [5] was ~ 200 fmol. For the same compound, the IC50 [6] was 180 µM, the “Inorganic phosphate released on incubation with brain homogenate” value [7] was “no release of inorganic phosphate was detected” and the “Concentration at which a mild decrease in cell viability was observed” value [8] was 400 µM. The “Concentration up to which no toxicity was detected” value [8] was “up to 200 μM”, the IC50 [9] was 3.3 µM and the “Protection of primary neurons from Aβ-induced effects” value (primary neurons) was “protected primary neurons from Aβ-induced decrease in synaptic spine density, basal synaptic activity, and long-term potentiation”. The “Concentration ratio for disruption of tubulin polymerization relative to ratios needed for inhibition of aggregation of amyloidogenic proteins” value (porcine brain tubulin) was 20–50 times higher, the “Absorbance observed immediately (λ = 340 nm)” value (porcine brain tubulin; 1,000 μM CLR01, 0.05-0.09 without or with up to 300 μM) was 0.15 absorbance units and the “Concentrations that did not significantly affect the polymerization of tubulin” value (porcine brain tubulin; 3 mg/ml (~18 μM) tubulin, 37 °C) was “up to 300 μM”. The “Concentration at which significant modulation of tubulin polymerization was observed” value (porcine brain tubulin; 3 mg/ml (~18 μM) tubulin, 37 °C, CLR01 tested at 10–1,000 μM) was 1,000 μM.
